Test results taken from patent US20250085273A1, “NOVEL RAPID DRUG DISCOVERY FOR SEPSIS AND AGENTS FOR USE AS SEPSIS THERAPY” (priority 2023, published 2025).
Counter-ions that a name gives are not always drawn.

Assays:
Type in all cases: in vivo, Danio rerio
[1] = tested on: zebrafish exposed to P. aeruginosa LPS; assay: Model compound testing in the optimized zebrafish sepsis model (varying LPS dose ranges); settings: for complete rescue of exposed fish: 60 μg/mL LPS challenge concentration
Description: Three sources of LPS were evaluated: E. coli 0111:B4, P. aeruginosa Sigma L9143, and K. pneumoniae. E. coli 0111:B4 LPS was selected as the reference LPS used by Philip et al. (2017). P. aeruginosa LPS is commonly associated with infections in hospitals, accounting for an estimated 32,600 cases and resulting in an estimated 2,700 deaths in 2017 (CDC Report 2019). P. aeruginosa infections are also a common cause of sepsis in both patients with severe burns and immunocompromised patients. K. pneumoniae LPS has military relevance related to battlefield injury infections (Kiley et al., 2021). Initial range finding LC50 tests with larval zebrafish were conducted for each LPS strain at both 3-dpf and 5-dpf. […] (E. coli 0111:B4 was also tested at higher concentrations, 400, 800, and 1000 μg/mL due a lack of toxicity within the initial dose range.) Well plates were then covered with parafilm and placed into an incubator at 28.5° C. for 24 hours. After 6 and 24 hours, the plates were removed and scored for mortality, tail edema, and ROS production. The tail edema endpoint evaluates vascular leakage from caudal fin in response to LPS exposure (FIG. 2). ROS production was determined as described by Philip et al. (2017) by adding 2,7-dichloroflurescein diacetate (100 μM) to the wells containing the zebrafish larvae and incubating them in a 100% dark photoperiod incubator at 28.5° C. for one hour. Florescent images of the incubated zebrafish were then captured with a Keyence BZ-X710 fluorescent microscope using 10× objective with a GFP filter and fixed 1/15 second exposure for all imaging. […] Results from the LPS toxicity testing and endpoint screening were used to develop the optimized testing procedure through evaluation in selected model compounds, as described in the next section and in the results.
The optimized zebrafish sepsis model was evaluated against compounds previously shown to have efficacy in previous zebrafish sepsis models: fasudil, hydrocortisone, dexamethasone, and fisetin. Fasudil, an anti-vascular leakage compound (inhibitor of the RhoA/Rho-kinase pathway) was shown by Philip et al. (2017) to rescue zebrafish from LPS-induced mortality, ROS production, and tail fin edema. Fasudil also rescued LPS-induced vascular leakage in murine models of experimental sepsis (Li et al., 2010) and reduced acute lung injury in septic rats through inhibition of the Rho/ROCK signaling pathway (Wang et al., 2018). […] Endpoints evaluated with model compounds included mortality, tail edema, and ROS at 6- and 24-hours post exposure to varying dose ranges of LPS.
LC50s for the LPS tests were determined using the Trimmed Spearmen-Karber method (Hamilton et al., 1977). The tail edema and mortality data from the initial and confirmatory drug testing was analyzed using GraphPad Prism 9 using Fisher's Exact Test. Each drug treatment group was compared pairwise with the on-board positive control group on each test plate. Statistical significance was determined with values of p≤0.05. Neurological behavioral testing data was analyzed by Ethovision software that produced an activity analysis profile per frame for each well of the 96 well plates. Any dead embryos were removed from the data set, and the remaining data set was imported into Excel. […] The behavioral data was then statistically analyzed by drug per phase using a 2 tailed t-test to determine statistical significance p≤0.01.

[2] = tested on: 3-dpf Zebrafish Embryos Challenged with LPS (P. aeruginosa 60 μg/mL); settings: P. aeruginosa LPS 60 μg/mL, compound 10 μM; for 3 dpf Embryos Percent Rescue (Mort + Tail Edema): initial 3-dpf screen shown for reference; for Percent Rescue (Mort + Tail Edema): 3-dpf embryos, n=16; for Percent Rescue (Mort + Tail Edema) / rescue of tail edema and mortality (sepsis rescue rate) at 3-dpf: 24 hours
Description: Healthy, normally developing embryos collected from the adult AB zebrafish spawning events were treated with 75 μM of 1-phenyl 2-thiourea (PTU) in EM prior to 24 hours post fertilization (hpf) to block pigmentation formation (Karlsson et al, 2001). These embryos were then placed into an incubator at 28.5° C. until they reached 3-dpf. Embryos were then removed from the incubator and plated individually into the wells of 96 well plates containing 50 μL of EM.
A super stock of 120 μg/mL of P. aeruginosa LPS was made up in EM in a glass container. This stock was then used to make sub stocks of 120 μg/mL P. aeruginosa LPS (positive control) and 120 μg/mL P. aeruginosa LPS containing 20 μM of test drug in glass scintillation vials. Immediately after the sub stocks were made, the wells were dosed with either 50 μL of 120 μg/mL of P. aeruginosa, 120 μg/mL of P. aeruginosa with 20 μM of test drug, or EM (1:1 Dilution). Each 96 well plate had one LPS positive control (n=16), 4 different test drugs with P. aeruginosa LPS (n=16 per drug), and one negative control (n=16). Once the plates were dosed, they were covered with parafilm and placed into an incubator at 28.5° C. The plates were removed at 6- and 24-hours post exposure to be scored for tail edema and mortality. All 644 drugs evaluated for rescue from mortality and tail edema induced by P. aeruginosa LPS exposure as compared to LPS-treated controls after 24 hours of exposure.
3-dpf embryos were challenged with 60 μg/mL P. aeruginosa LPS in combination with single 10 μM concentration of each compound for 24 hours (n=16 fish per compound). […] Other 29 compounds exceeded 60% rescue of tail edema and mortality at 24 hours post exposure.

[3] = tested on: 5-dpf zebrafish larvae challenged with P. aeruginosa LPS 60 μg/mL; settings: compound 10 μM; for 5 dpf Embryos Percent Rescue (Mort + Tail Edema): 5-dpf larvae
Description: Confirmatory testing followed the same methods as the initial testing but used 5-dpf larvae instead of the 3-dpf larvae that were used for the initial screening because they were easier to handle and replicated the methods of Philip et al. (2017).
Next, follow-on 5-dpf screening was implemented to confirm initial screening with more larvae. Zebrafish swim faster at 5-dpf (requiring more time to load 96 plates), and all major organ systems are functioning at 5-dpf and thus determined as advantageous for follow-on confirmation.

[4] = tested on: larval zebrafish exposed to Pseudomonas aeruginosa 60 μg/mL lipopolysaccharide (LPS); assay: Zebrafish endotoxicity/sepsis model drug screening, statements without larval stage; settings: for rescue from mortality / rescue from vascular damage (tail edema): zebrafish endotoxemia model
Description: To identify potential sepsis drug candidates, an optimized larval zebrafish model of endotoxicity/sepsis was used to screen commercial libraries of U.S. Food and Drug Administration (FDA)-approved drugs and other active pharmaceutical ingredients (API) known to affect pathways implicated in the initiation and progression of sepsis in humans (i.e., inflammation, mitochondrial dysfunction, coagulation, and apoptosis). In this model, endotoxicity was induced in 3- and 5-day post fertilization larval zebrafish (characterized by mortality and tail fin edema (vascular leakage)) by immersion exposure to Pseudomonas aeruginosa 60 μg/mL lipopolysaccharide (LPS) for 24 hours, then screened for the rescue potential of 644 selected drugs simultaneously with LPS at 10 μM. After LPS exposure, a neurobehavioral assay (light-dark test) was performed to further evaluate rescue from endotoxicity and to determine possible off-target drug side effects.

[5] = tested on: zebrafish (4 dpf pre-treated, LPS exposure at 5-dpf) challenged with P. aeruginosa LPS 60 μg/mL; settings: for 24 hour Tail Edema, No-Drug Pretreatment / 24 Hour Mortality and Tail Edema, Drug Pretreatment / 24 Hour Mortality, Drug Pretreatment / 24 hour Tail Edema, Drug Pretreatment / 24 Hour Mortality and Tail Edema, No-Drug Pretreatment / 24 Hour Mortality, No Drug Pretreatment: number of n = 16 fish; for 24 hour Tail Edema, No-Drug Pretreatment: 10 μM drug with LPS 60 μg/mL; for 24 hour Tail Edema, No-Drug Pretreatment / 24 Hour Mortality and Tail Edema, No-Drug Pretreatment / 24 Hour Mortality, No Drug Pretreatment: no 24-hour pre-treatment; for 24 Hour Mortality and Tail Edema, Drug Pretreatment / 24 Hour Mortality, Drug Pretreatment: 24-hour 10 μM drug pre-treatment; for 24 hour Tail Edema, Drug Pretreatment: 24-hour 10 μM drug pre-treatment before LPS 60 μg/mL
Description: Drugs identified with >80% rescue were subjected to additional testing. Drug pretreatment for 24 hours prior to LPS challenge was evaluated to determine if any prophylactic benefit could be realized with any of the top rescue drugs. The intent was to determine if drug pre-treatment might be used at the point of injury as a preventative therapeutic before the onset of infection and development of sepsis. Parallel groups of fish received a 24-hour drug pre-treatment or no drug pre-treatment prior to LPS challenge. For this test, 4 dpf PTU-treated zebrafish embryos were placed into 96 well plates containing 100 μL of EM. […] All plates were covered with parafilm and placed into an incubator at 28.5° C. for 24 hours. […] Once the plates were dosed, they were covered with parafilm and placed into an incubator at 28.5° C. The plates were removed at 6- and 24-hours post exposure and scored for tail edema and mortality. Once the 24-hour tail edema and mortality endpoints were collected, a neurobehavioral test was conducted as described in section 2.8.

| Compound | 3 dpf Embryos Percent Rescue (Mort + Tail Edema) [2] | 5 dpf Embryos Percent Rescue (Mort + Tail Edema) [3] | Percent Rescue (Mort + Tail Edema) [2] | rescue of tail edema and mortality (sepsis rescue rate) at 3-dpf [2] | rescue of tail edema and mortality (sepsis rescue rate) at 5-dpf [3] | 24 hour Tail Edema, No-Drug Pretreatment [5] | 24 Hour Mortality and Tail Edema, Drug Pretreatment [5] | 24 Hour Mortality, Drug Pretreatment [5] | 24 hour Tail Edema, Drug Pretreatment [5] | 24 Hour Mortality and Tail Edema, No-Drug Pretreatment [5] | 24 Hour Mortality, No Drug Pretreatment [5] | further results |
| --- | --- | --- | --- | --- | --- | --- | --- | --- | --- | --- | --- | --- |
| O=S(=O)(c1cccc2cnccc12)N1CCCNCC1 [Fasudil] |  |  |  |  |  |  |  |  |  |  |  | complete rescue of exposed fish [1]: Neither compound showed complete rescue; mortality at 24 hours post exposure ([1]; 24 hours post LPS exposure): statistically significant (p=0.0233) reduction in mortality |
| O=C(O)c1cn(C2CC2)c2cc(N3CCNCC3)c(F)cc2c1=O [Compound 34, Ciprofloxacin (hydrochloride monohydrate)] | 13% | 6% |  |  |  |  |  |  |  |  |  | rescue from mortality [4]: provided rescue from mortality; rescue from vascular damage (tail edema) [4]: did not elicit rescue from vascular damage |
| Cc1nccn1CC1CCc2c(c3ccccc3n2C)C1=O (stereo not shown) [Ondansetron] |  |  |  |  |  |  |  |  |  |  |  | efficacy in the zebrafish endotoxicity sepsis model ([4]; in vivo): not efficacious |
| Ferric citrate [Compound 340] | 94% | 81% | 94% | 94% | 81% | 2 fish | 15 fish | 15 fish | 0 fish | 15 fish | 13 fish | fish with tail edemas ([4]; 6 hours post exposure): 9 of 16 fish; fish with tail edema ([4]; 24 hours): 1 of 16 |
| CN1C2CCCC1CC(NC(=O)c1nn(C)c3ccccc13)C2 (stereo not shown) [Granisetron] |  |  |  |  |  |  |  |  |  |  |  | rescue from mortality [4]: significant reduction in mortality; rescue from vascular damage (tail edema) [4]: did not rescue from vascular damage (tail edema) |
| COc1ccc2c(c1)N(C[C@H](C)CN(C)C)c1ccccc1S2 [Compound 316, Levomepromazine] | 63% | 88% | 63% | 63% | 88% | 1 fish | 16 fish | 16 fish | 0 fish | 16 fish | 15 fish |  |
| CCN(CC)CCNC(=O)c1c(C)[nH]c(/C=C2\C(=O)Nc3ccc(F)cc32)c1C [Compound 97, Sunitinib] | 81% | 100% | 81% | 81% | 100% | 4 fish | 4 fish | 3 fish | 1 fish | 7 fish | 3 fish | Pre-Treatment Rescue (n = 16) ([5]; 24-hour drug pre-treatment, P. aeruginosa LPS 60 μg/mL): 88%; No Pre-Treatment Rescue (n = 16) ([5]; no 24-hour drug pre-treatment, P. aeruginosa LPS 60 μg/mL): 69% |
| O=C1Cc2cc(CCN3CCN(c4nsc5ccccc45)CC3)c(Cl)cc2N1 [Compound 63, Ziprasidone hydrochloride monohydrate] | 44% |  |  | 44% | 100% | 2 fish | 4 fish | 4 fish | 0 fish | 7 fish | 5 fish |  |
| CCCCCCCCCCCCCCCC(=O)OC1CCCn2c1nc(C)c(CCN1CCC(c3noc4cc(F)ccc34)CC1)c2=O (stereo not shown) [Compound 429, Paliperidone palmitate] | 94% | 100% | 94% | 94% | 100% | 3 fish | 12 fish | 10 fish | 2 fish | 9 fish | 6 fish |  |
| O=c1c(O)c(-c2ccc(O)c(O)c2)oc2cc(O)ccc12 [Fisetin] |  |  |  |  |  |  |  |  |  |  |  | complete rescue of exposed fish [1]: Neither compound showed complete rescue |
